What follows are compounds tested against USP14 (Homo sapiens (Human), UniProt P54578) (assay: Usp14 inhibition assay (Example 57B, B-series compounds)). Details: IC50 class; average value from a minimum of two experimental determinations.
USP14, sequence (P54578 whole entry, looked up): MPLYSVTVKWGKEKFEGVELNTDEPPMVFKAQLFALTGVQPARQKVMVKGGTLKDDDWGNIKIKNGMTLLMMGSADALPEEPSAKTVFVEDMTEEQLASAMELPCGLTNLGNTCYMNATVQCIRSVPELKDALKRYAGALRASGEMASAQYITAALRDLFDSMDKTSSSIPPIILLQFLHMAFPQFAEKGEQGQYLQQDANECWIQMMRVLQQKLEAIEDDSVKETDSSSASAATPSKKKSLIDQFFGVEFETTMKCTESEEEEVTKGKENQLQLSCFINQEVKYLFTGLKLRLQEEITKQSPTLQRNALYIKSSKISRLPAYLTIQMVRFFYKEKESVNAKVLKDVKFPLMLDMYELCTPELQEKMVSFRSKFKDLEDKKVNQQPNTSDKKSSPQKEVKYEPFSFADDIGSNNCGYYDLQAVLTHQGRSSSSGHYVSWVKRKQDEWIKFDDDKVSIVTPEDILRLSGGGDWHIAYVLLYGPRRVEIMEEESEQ
Format: biochemical
Excerpt: Example 57B: Usp14 Inhibition Assay
The IC50 values in the Table below represent the average value from a minimum of two experimental determinations.
Cc1c(C(=O)CN2[C@@H]3CC[C@H]2[C@@H](O)C3)cc(CCCC2CCOCC2)n1-c1ccc(C#N)cc1 (racemic) [Example 2B, (±)-4-(3-(2-((1S,2S,4R)-2-Hydroxy-7-azabicyclo[2.2.1]heptan-7-yl)acetyl)-2-methyl-5-(3-(tetrahydro-2H-pyran-4-yl)propyl)-1H-pyrrol-1-yl)benzonitrile] was tested, and the IC50 was < 50 nM.
For Cc1c(C(=O)CN2C3CCC2[C@@H](O)C3)cc(C[C@H]2C[C@@H](C#N)C2)n1-c1ccc(C#N)cc1 (mixture of isomers) [Example 4B, (±)-4-(5-4(1s,3S)-3-cyanocyclobutyl)methyl)-3-(2-((1R,2R,4S)-2-hydroxy-7-azabicyclo[2.2.1]heptan-7-yl)acetyl)-2-methyl-1H-pyrrol-1-yl)benzonitrile], the IC50 was < 50 nM.
For Cc1c(C(=O)CN2C3CCC2[C@@H](O)C3)cc(COCCC#N)n1-c1ccc(C#N)cc1 (mixture of isomers) [Example 5B, (±)-4-(5-((2-Cyanoethoxy)methyl)-3-(2-((2R)-2-hydroxy-7-azabicyclo[2.2.1]heptan-7-yl)acetyl)-2-methyl-1H-pyrrol-1-yl)benzonitrile], the IC50 was > 500 nM.
With Cc1nccn1C/C=C/c1cc(C(=O)CN2C3CCC2[C@@H](O)C3)c(C)n1-c1ccc(C#N)cc1 (mixture of isomers) [Example 6B, (±)-4-(3-(2-((2R)-2-Hydroxy-7-azabicyclo[2.2.1]heptan-7-yl)acetyl)-2-methyl-5-((E)-3-(2-methyl-1H-imidazol-1-yl)prop-1-en-1-yl)-1H-pyrrol-1-yl)benzonitrile] the IC50 was < 50 nM.
Cc1c(C(=O)CN2C3CCC2[C@@H](O)C3)cc(CCCCS(C)(=O)=O)n1-c1ccc(C#N)cc1 (mixture of isomers) [Example 8B, (±)-4-(3-(2-((1R,2R,4S)-2-Hydroxy-7-azabicyclo[2.2.1]heptan-7-yl)acetyl-2-methyl-5-(4-(methylsulfonyl)butyl)-1H-pyrrol-1-yl)benzonitrile] was tested, and the IC50 was < 50 nM.
In the case of Cc1c(C(=O)CN2C3CCC2[C@@H](O)C3)cc(CCC2CCOCC2)n1-c1ccc(C#N)cc1 (mixture of isomers) [Example 9B, (±)-4-(3-(2-((2R)-2-Hydroxy-7-azabicyclo[2.2.1]heptan-7-yl)acetyl)-2-methyl-5-(2-(tetrahydro-2H-pyran-4-yl)ethyl)-1H-pyrrol-1-yl)benzonitrile], the IC50 is reported as < 50 nM.
In the case of Cc1c(C(=O)CN2C3CCC2[C@@H](O)C3)cc(C#CCCC#N)n1-c1ccc(C#N)cc1 (mixture of isomers) [Example 10B, (±)-4-(5-(4-Cyanobut-1-yn-1-yl)-3-(2-((2R)-2-hydroxy-7-azabicyclo[2.2.1]heptan-7-yl)acetyl)-2-methyl-1H-pyrrol-1-yl)benzonitrile], the IC50 is reported as < 50 nM.
With Cc1c(C(=O)CN2C3CCC2[C@H](O)C3)cc(C(C)CCS(C)(=O)=O)n1-c1ccc(C#N)cc1 (mixture of isomers) [Example 11B, (±)-4-(3-(2-((2R)-2-Hydroxy-7-azabicyclo[2.2.1]heptan-7-yl)acetyl)-2-methyl-5-(4-(methylsulfonyl)butan-2-yl)-1H-pyrrol-1-yl)benzonitrile] the IC50 was > 500 nM.
In the case of Cc1c(C(=O)CN2[C@@H]3CC[C@H]2[C@@H](O)C3)cc(CCCCC2CCOCC2)n1-c1ccc(C#N)cc1 (racemic) [Example 14B, (±)-4-(3-(2-((1S,2S,4R)-2-Hydroxy-7-azabicyclo[2.2.1]heptan-7-yl)acetyl)-2-methyl-5-(4-(tetrahydro-2H-pyran-4-yl)butyl)-1H-pyrrol-1-yl)benzonitrile], the IC50 is reported as < 50 nM.
In the case of Cc1c(C(=O)CN2[C@@H]3CC[C@H]2[C@@H](O)C3)cc(/C=C/CC(C)(C)C#N)n1-c1ccc(C#N)cc1 (racemic) [Example 15B, (±)-4-(5-((E)-4-Cyano-4-methylpent-1-en-1-yl)-3-(2-((1R,2R,4S)-2-hydroxy-7-azabicyclo[2.2.1]heptan-7-yl)acetyl)-2-methyl-1H-pyrrol-1-yl)benzonitrile], the IC50 is reported as < 50 nM.
With Cc1c(C(=O)CN2C3CCC2C(O)C3)cc([C@@H]2C[C@H]2CCC#N)n1-c1ccc(C#N)cc1 (mixture of isomers) [Example 17B, (±)-4-(5-((1R,2R)-2-(2-Cyanoethyl)cyclopropyl)-3-(2-((2R)-2-hydroxy-7-azabicyclo[2.2.1]heptan-7-yl)acetyl)-2-methyl-1H-pyrrol-1-yl)benzonitrile] the IC50 was 50 to 500 nM.
With Cc1c(CCCCS(C)(=O)=O)c(C(=O)CN2C3CCC2[C@@H](O)C3)c(C)n1-c1ccc(C#N)cc1 (mixture of isomers) [Example 19B, (±)-4-(3-(2-((2R)-2-Hydroxy-7-azabicyclo[2.2.1]heptan-7-yl)acetyl)-2,5-dimethyl-4-(4-(methylsulfonyl)butyl)-1H-pyrrol-1-yl)benzonitrile] the IC50 was > 500 nM.
For Cc1c(C(=O)CN2C3CCC2[C@@H](O)C3)cc(/C=C/CCC#N)n1-c1ccc(C#N)cc1 (mixture of isomers) [Example 20B, (±)-4-(5-((E)-4-Cyanobut-1-en-1-yl)-3-(2-((2R)-2-hydroxy-7-azabicyclo[2.2.1]heptan-7-yl)acetyl)-2-methyl-1H-pyrrol-1-yl)benzonitrile], the IC50 was < 50 nM.
For Cc1c(C(=O)CN2[C@@H]3CC[C@H]2[C@@H](O)C3)cc(CCCC2COC2)n1-c1ccc(C#N)cc1 (racemic) [Example 22B, (±)-4-(3-(2-((1R,2R,4S)-2-Hydroxy-7-azabicyclo[2.2.1]heptan-7-yl)acetyl)-2-methyl-5-(3-(oxetan-3-yl)propyl)-1H-pyrrol-1-yl)benzonitrile], the IC50 was < 50 nM.
Cc1c(C(=O)CN2[C@@H]3CC[C@H]2[C@@H](O)C3)cc(CCCCC2COC2)n1-c1ccc(C#N)cc1 (racemic) [Example 23B, (±)-4-(3-(2-((1S,2S,4R)-2-Hydroxy-7-azabicyclo[2.2.1]heptan-7-yl)acetyl)-2-methyl-5-(4-(oxetan-3-yl)butyl)-1H-pyrrol-1-yl)benzonitrile] was tested, and the IC50 was < 50 nM.
Cc1c(C(=O)CN2C3CCC2[C@@H](O)C3)cc(CCCn2cccn2)n1-c1ccc(C#N)cc1 (mixture of isomers) [Example 24B, (±)-4-(5-(3-(1H-Pyrazol-1-yl)propyl)-3-(2-((2R)-2-hydroxy-7-azabicyclo[2.2.1]heptan-7-yl)acetyl)-2-methyl-1H-pyrrol-1-yl)benzonitrile] gave an IC50 of 50 to 500 nM.
In the case of Cc1c(C(=O)CN2[C@@H]3CC[C@H]2[C@@H](O)C3)cc(/C=C/Cn2cccn2)n1-c1ccc(C#N)cc1 (racemic) [Example 27B, (±)-4-(5-((E)-3-(1H-Pyrazol-1-yl)prop-1-en-1-yl)-3-(2-((1S,2S,4R)-2-hydroxy-7-azabicyclo[2.2.1]heptan-7-yl)acetyl)-2-methyl-1H-pyrrol-1-yl)benzonitrile], the IC50 is reported as < 50 nM.
With Cc1c(C(=O)CN2[C@@H]3CC[C@H]2[C@@H](O)C3)cc(CCCCC#N)n1-c1ccc(Cl)cc1 (racemic) [Example 29B, (±)-5-(1-(4-Chlorophenyl)-4-(2-((1R,2R,4S)-2-hydroxy-7-azabicyclo[2.2.1]heptan-7-yl)acetyl)-5-methyl-1H-pyrrol-2-yl)pentanenitrile] the IC50 was < 50 nM.
Cc1c(C#N)c(C(=O)CN2C3CCC2[C@@H](O)C3)c(C)n1-c1ccc(C#N)cc1 (mixture of isomers) [Example 33B, (±)-1-(4-Cyanophenyl)-4-(2-((2R)-2-hydroxy-7-azabicyclo[2.2.1]heptan-7-yl)acetyl)-2,5-dimethyl-1H-pyrrole-3-carbonitrile] was tested, and the IC50 was > 500 nM.
CSCCCCc1cc(C(=O)CN2C3CCC2[C@@H](O)C3)c(C)n1-c1ccc(C#N)cc1 (mixture of isomers) [Example 37B, (±)-4-(3-(2-((2R)-2-Hydroxy-7-azabicyclo[2.2.1]heptan-7-yl)acetyl)-2-methyl-5-(4-(methylthio)butyl)-1H-pyrrol-1-yl)benzonitrile] was tested, and the IC50 was < 50 nM.
In the case of CSCCCCCc1cc(C(=O)CN2[C@@H]3CC[C@H]2[C@@H](O)C3)c(C)n1-c1ccc(C#N)cc1 (racemic) [Example 38B, (±)-4-(3-(2-((1R,2R,4S)-2-Hydroxy-7-azabicyclo[2.2.1]heptan-7-yl)acetyl)-2-methyl-5-(5-(methylthio)pentyl)-1H-pyrrol-1-yl)benzonitrile], the IC50 is reported as < 50 nM.
With Cc1c(C(=O)CN2C3CCC2[C@@H](O)C3)cc(CC2COC2)n1-c1ccc(C#N)cc1 (mixture of isomers) [Example 39B, (±)-4-(3-(2-((2R)-2-Hydroxy-7-azabicyclo[2.2.1]heptan-7-yl)acetyl)-2-methyl-5-(oxetan-3-ylmethyl)-1H-pyrrol-1-yl)benzonitrile] the IC50 was < 50 nM.
Cc1c(C(=O)CN2C3CCC2[C@@H](O)C3)c(Cl)c(CCCCC#N)n1-c1ccc(C#N)c(F)c1 (mixture of isomers) [Example 40B, (±)-4-(3-Chloro-2-(4-cyanobutyl)-4-(2-((2R)-2-hydroxy-7-azabicyclo[2.2.1]heptan-7-yl)acetyl)-5-methyl-1H-pyrrol-1-yl)-2-fluorobenzonitrile] was tested, and the IC50 was < 50 nM.
In the case of Cc1nc(Cc2cc(C(=O)CN3C4CCC3[C@@H](O)C4)c(C)n2-c2ccc(C#N)cc2)cs1 (mixture of isomers) [Example 41B, (±)-4-(3-(2-((2R)-2-Hydroxy-7-azabicyclo[2.2.1]heptan-7-yl)acetyl)-2-methyl-5-((2-methylthiazol-4-yl)methyl)-1H-pyrrol-1-yl)benzonitrile], the IC50 is reported as < 50 nM.
Cc1c(C(=O)CN2C3CCC2[C@@H](O)C3)cc(CCCC2(C)COC2)n1-c1ccc(C#N)cc1 (mixture of isomers) [Example 42B, (±)-4-(3-(2-((2R)-2-Hydroxy-7-azabicyclo[2.2.1]heptan-7-yl)acetyl)-2-methyl-5-(3-(3-methyloxetan-3-yl)propyl)-1H-pyrrol-1-yl)benzonitrile] was tested, and the IC50 was < 50 nM.
With Cc1c(C(=O)CN2C3CCC2[C@@H](O)C3)cc(CCC2COC2)n1-c1ccc(C#N)cc1 (mixture of isomers) [Example 43B, (±)-4-(3-(2-((2R)-2-Hydroxy-7-azabicyclo[2.2.1]heptan-7-yl)acetyl)-2-methyl-5-(2-(oxetan-3-yl)ethyl)-1H-pyrrol-1-yl)benzonitrile] the IC50 was < 50 nM.
Cc1c(C(=O)CN2[C@@H]3CC[C@@H]2[C@@H](O)C3)cc(CC2CCOCC2)n1-c1ccc(C#N)cc1 (racemic) [Example 44B, (±)-4-(3-(2-((1R,2S,4R)-2-Hydroxy-7-azabicyclo[2.2.1]heptan-7-yl)acetyl)-2-methyl-5-((tetrahydro-2H-pyran-4-yl)methyl)-1H-pyrrol-1-yl)benzonitrile] was tested, and the IC50 was < 50 nM.
